In PubChem BioAssay (NCI):
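Test compounds were applied to cells in 96-well plates for 48 hours at 5 doses. Abbreviation: GI50, concentration required for 50% inhibition of growth. TGI: concentration producing complete growth inhibition.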

Assays:
Assay in all cases: DTP human tumour cell line panel, 48 h
[1] = system: HT29 colon
[2] = system: IGROV1 ovarian
[3] = system: EKVX NSCLC
[4] = system: ACHN renal
[5] = system: LOX IMVI melanoma
[6] = system: OVCAR-5 ovarian
[7] = system: NCI-H23 lung
[8] = system: SN12C renal
[9] = system: MOLT-4 leukemia
[10] = system: K-562 leukemia
[11] = system: NCI-H226 lung
[12] = system: UACC-257 melanoma
[13] = system: MCF7 breast
[14] = system: OVCAR-8 ovarian
[15] = system: CAKI-1 renal
[16] = system: SK-MEL-28 melanoma
[17] = system: NCI-H522 lung
[18] = system: 786-0 renal
[19] = system: NCI/ADR-RES ovarian
[20] = system: UO-31 renal
[21] = system: HL-60(TB) leukemia
[22] = system: HS 578T breast
[23] = system: NCI-H460 lung
[24] = system: MALME-3M melanoma
[25] = system: SK-OV-3 ovarian
[26] = system: HCT-116 colon
[27] = system: DU-145 prostate
[28] = system: MDA-MB-231 breast
[29] = system: SW-620 colon
[30] = system: SK-MEL-5 melanoma
[31] = system: U251 CNS
[32] = system: A498 renal
[33] = system: T-47D breast
[34] = system: RXF 393 renal
[35] = system: BT-549 breast
[36] = system: SK-MEL-2 melanoma
[37] = system: SNB-19 CNS
[38] = system: SF-268 CNS
[39] = system: PC-3 prostate
[40] = system: M14 melanoma
[41] = system: TK-10 renal
[42] = system: SR leukemia
[43] = system: OVCAR-3 ovarian
[44] = system: KM12 colon
[45] = system: HCC-2998 colon
[46] = system: A549 NSCLC
[47] = system: OVCAR-4 ovarian
[48] = system: COLO 205 colon
[49] = system: MDA-MB-435
[50] = system: UACC-62 melanoma
[51] = system: SF-539 CNS
[52] = system: SF-295 CNS
[53] = system: SNB-75 CNS
[54] = system: CCRF-CEM leukemia
[55] = system: HCT-15 colon
[56] = system: HOP-92 NSCLC
[57] = system: RPMI-8226 leukemia
[58] = system: HOP-62 NSCLC

COC(=O)c1cc2c([nH]c3ccccc32)c(-c2nc3cc(N(S(=O)(=O)c4ccc(C)cc4)S(=O)(=O)c4ccc(C)cc4)c(OC)cc3cc2CO)n1
GI50 [1]: > 100000 nM | TGI [1]: > 100 µM | GI50 [2]: > 100 µM | TGI [2]: > 100 µM | GI50 [3]: > 100 µM | TGI [3]: > 100 µM | GI50 [4]: > 100 µM | TGI [4]: > 100 µM | GI50 [5]: > 100 µM | TGI [5]: > 100 µM | GI50 [6]: > 100 µM | TGI [6]: > 100 µM | GI50 [7]: > 100 µM | TGI [7]: > 100 µM | GI50 [8]: > 100 µM | TGI [8]: > 100 µM | GI50 [9]: 10.6 µM | TGI [9]: 25.7 µM | GI50 [10]: > 100000 nM | TGI [10]: > 100 µM | GI50 [11]: > 100 µM | TGI [11]: > 100 µM | GI50 [12]: > 100 µM | TGI [12]: > 100 µM | GI50 [13]: > 100000 nM | TGI [13]: > 100 µM | GI50 [14]: > 100000 nM | TGI [14]: > 100 µM | GI50 [15]: > 100 µM | TGI [15]: > 100 µM | GI50 [16]: > 100 µM | TGI [16]: > 100 µM | GI50 [17]: > 100 µM | TGI [17]: > 100 µM | GI50 [18]: 32.1 µM | TGI [18]: 87.8 µM | GI50 [19]: > 100 µM | TGI [19]: > 100 µM | GI50 [20]: > 100 µM | TGI [20]: > 100 µM | GI50 [21]: 31.7 µM | TGI [21]: 75.7 µM | GI50 [22]: 30.6 µM | TGI [22]: > 100 µM | GI50 [23]: > 100000 nM | TGI [23]: > 100 µM | GI50 [24]: > 100000 nM | TGI [24]: > 100 µM | GI50 [25]: > 100 µM | TGI [25]: > 100 µM | GI50 [26]: > 100000 nM | TGI [26]: > 100 µM | GI50 [27]: > 100000 nM | TGI [27]: > 100 µM | GI50 [28]: 78.6 µM | TGI [28]: > 100 µM | GI50 [29]: > 100000 nM | TGI [29]: > 100 µM | GI50 [30]: > 100 µM | TGI [30]: > 100 µM | GI50 [31]: 59.5 µM | TGI [31]: > 100 µM | GI50 [32]: > 100000 nM | TGI [32]: > 100 µM | GI50 [33]: > 100 µM | TGI [33]: > 100 µM | GI50 [34]: > 100 µM | TGI [34]: > 100 µM | GI50 [35]: > 100 µM | TGI [35]: > 100 µM | GI50 [36]: > 100 µM | TGI [36]: > 100 µM | GI50 [37]: 75 µM | TGI [37]: > 100 µM | GI50 [38]: > 100 µM | TGI [38]: > 100 µM | GI50 [39]: > 100000 nM | TGI [39]: > 100 µM | GI50 [40]: > 100 µM | TGI [40]: > 100 µM | GI50 [41]: > 100 µM | TGI [41]: > 100 µM | GI50 [42]: 1280 nM | TGI [42]: 3.48 µM | GI50 [43]: > 100 µM | TGI [43]: > 100 µM | GI50 [44]: > 100000 nM | TGI [44]: > 100 µM | GI50 [45]: > 100 µM | TGI [45]: > 100 µM | GI50 [46]: > 100 µM | TGI [46]: > 100 µM | GI50 [47]: > 100 µM | TGI [47]: > 100 µM | GI50 [48]: > 100 µM | TGI [48]: > 100 µM | GI50 [49]: > 100000 nM | TGI [49]: > 100 µM | GI50 [50]: > 100 µM | TGI [50]: > 100 µM | GI50 [51]: 56.1 µM | TGI [51]: > 100 µM | GI50 [52]: > 100 µM | TGI [52]: > 100 µM | GI50 [53]: 33.5 µM | TGI [53]: 98.7 µM | GI50 [54]: 10.3 µM | TGI [54]: 32 µM | GI50 [55]: > 100000 nM | TGI [55]: > 100 µM | GI50 [56]: > 100000 nM | TGI [56]: > 100 µM

COc1ccc(/C=C2\CN(Cc3cn(CCCNc4ccnc5cc(Cl)ccc45)nn3)C/C(=C\c3ccc(OC)cc3)C2=O)cc1
GI50 [57]: 2220 nM | TGI [57]: 10.3 µM | GI50 [1]: 1820 nM | TGI [1]: 6.38 µM | GI50 [2]: 4.86 µM | TGI [2]: 17.6 µM | GI50 [4]: 12.9 µM | TGI [4]: 25.6 µM | GI50 [5]: 3.98 µM | TGI [5]: 18.5 µM | GI50 [6]: 21 µM | TGI [6]: 44.2 µM | GI50 [7]: 10.8 µM | TGI [7]: 34.5 µM | GI50 [8]: 13.1 µM | TGI [8]: 33.8 µM | GI50 [58]: 19.4 µM | TGI [58]: 35.5 µM | GI50 [9]: 2.55 µM | TGI [9]: 9.4 µM | GI50 [10]: 2650 nM | TGI [10]: 11.7 µM | GI50 [11]: 25.5 µM | TGI [11]: > 100 µM | GI50 [12]: 8.28 µM | TGI [12]: 23.3 µM | GI50 [13]: 2010 nM | TGI [13]: 10.1 µM | GI50 [14]: 2060 nM | TGI [14]: 5.64 µM | GI50 [16]: 14 µM | TGI [16]: 28 µM | GI50 [17]: 10.3 µM | TGI [17]: 21.9 µM | GI50 [18]: 14.3 µM | TGI [18]: 30.3 µM | GI50 [19]: 3.15 µM | TGI [19]: 14.5 µM | GI50 [20]: 3.85 µM | TGI [20]: 21.4 µM | GI50 [21]: 3.27 µM | TGI [21]: 18.2 µM | GI50 [22]: 6.27 µM | TGI [22]: 29.7 µM | GI50 [23]: 1860 nM | TGI [23]: 3.79 µM | GI50 [24]: 2090 nM | TGI [24]: 5.37 µM | GI50 [25]: 14.1 µM | TGI [25]: 30.6 µM | GI50 [26]: 2800 nM | TGI [26]: 12.4 µM | GI50 [27]: 1810 nM | TGI [27]: 3.3 µM | GI50 [28]: 5.39 µM | TGI [28]: 28.4 µM | GI50 [29]: 1690 nM | TGI [29]: 3.57 µM | GI50 [30]: 10.5 µM | TGI [30]: 22.3 µM | GI50 [31]: 5.53 µM | TGI [31]: 18.9 µM | GI50 [32]: 2200 nM | TGI [32]: 32.8 µM | GI50 [33]: 21 µM | TGI [33]: 51.1 µM | GI50 [34]: 5.48 µM | TGI [34]: 18.9 µM | GI50 [35]: 3.78 µM | TGI [35]: 12.9 µM | GI50 [36]: 9.85 µM | TGI [36]: 39.6 µM | GI50 [37]: 15.7 µM | TGI [37]: 36.1 µM | GI50 [38]: 3.45 µM | TGI [38]: 16.9 µM | GI50 [39]: 2900 nM | TGI [39]: 17 µM | GI50 [40]: 4.15 µM | TGI [40]: 16.2 µM | GI50 [41]: 16.5 µM | TGI [41]: 30.1 µM | GI50 [42]: 1690 nM | TGI [42]: 7.47 µM | GI50 [43]: 4.91 µM | TGI [43]: 18.1 µM | GI50 [44]: 1660 nM | TGI [44]: 3.39 µM | GI50 [45]: 13.8 µM | TGI [45]: 27.9 µM | GI50 [46]: 5.07 µM | TGI [46]: 19.5 µM | GI50 [47]: 7.37 µM | TGI [47]: 28.1 µM | GI50 [48]: 12.2 µM | TGI [48]: 26.8 µM | GI50 [49]: 1600 nM | TGI [49]: 3.02 µM | GI50 [50]: 16.3 µM | TGI [50]: 32.1 µM | GI50 [51]: 13.9 µM | TGI [51]: 26.8 µM | GI50 [52]: 14.2 µM | TGI [52]: 31.4 µM | GI50 [53]: 3.89 µM | TGI [53]: 19.7 µM | GI50 [54]: 2.39 µM | TGI [54]: 7.01 µM | GI50 [55]: 1830 nM | TGI [55]: 5.14 µM | GI50 [56]: 962 nM | TGI [56]: 15.9 µM
